Experimental data: US4866044A, “Solubilized composition of poorly-soluble pharmaceutical product” (Takeda Chemical Industries, Ltd., priority 1985, dated 1989)

What was measured:
physchem = conditions: water
[1] = pH 6

Row | Compound | solubility (physchem) | redissolubility [1]
1 | CCCCCCCCCCCCCCCCCCNC(=O)OCC(COP(=O)([O-])OCC[n+]1ccsc1)OC (centres unmarked) [Compound [1], 3-(n-Octadecylcarbamoyloxy)-2-methoxypropyl 2-thiazolioethyl phosphate] | ~100 mg/mL | –
2 | alanine | – | O (key: O: dissolved within one minute; Δ: dissolved within one to three minutes)
